Test results reported in patent US10251395B2, “Substituted furano-/thienocycloalkylamino-2-pyrimidine derivatives and use thereof for controlling undesired plant growth” (Bayer CropScience Aktiengesellschaft, priority 2015, dated 2019).

Columns and labels:
[1] = test system: Matricaria inodora; test: Pre-emergence herbicidal effect; format: in vivo; conditions: scored visually after 3 weeks
Method in brief: (§1)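 Seeds in sandy loam were covered with soil and treated pre-emergence with WP or EC formulations applied as aqueous spray with 0.2% wetting agent. Percent damage was scored visually after 3 weeks relative to untreated controls.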

[2] = test system: Alopecurus myosuroides; test: Pre-emergence herbicidal effect; format: in vivo; conditions: scored visually after 3 weeks
Method in brief: as §1

[3] = test system: Veronica persica; test: Pre-emergence herbicidal effect; format: in vivo; conditions: scored visually after 3 weeks
Method in brief: as §1

[4] = test system: Stellaria media; test: Pre-emergence herbicidal effect; format: in vivo; conditions: scored visually after 3 weeks
Method in brief: as §1

[5] = test system: Viola tricolor; test: Pre-emergence herbicidal effect; format: in vivo; conditions: scored visually after 3 weeks
Method in brief: as §1

[6] = test system: Amaranthus retroflexus; test: Pre-emergence herbicidal effect; format: in vivo; conditions: scored visually after 3 weeks
Method in brief: as §1

[7] = test system: Echinochloa crus-galli; test: Pre-emergence herbicidal effect; format: in vivo; conditions: scored visually after 3 weeks
Method in brief: as §1

[8] = test system: Setaria viridis; test: Pre-emergence herbicidal effect; format: in vivo; conditions: scored visually after 3 weeks
Method in brief: as §1

[9] = test system: Abutilon theophrasti; test: Pre-emergence herbicidal effect; format: in vivo; conditions: scored visually after 3 weeks
Method in brief: as §1

[10] = test system: Polygonum convolvulus; test: Pre-emergence herbicidal effect; format: in vivo; conditions: scored visually after 3 weeks
Method in brief: as §1

[11] = logP (HCOOH); format: physicochemical; conditions: HCOOH
From the text: Table 2 (physicochemical characterization of selected synthesis examples)

[12] = test system: Matricaria inodora; test: Post-emergence herbicidal effect; format: in vivo; conditions: assessed visually after about 3 weeks vs untreated controls
Method in brief: (§2)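 Ratings are visual percentages taken around 3 weeks after treatment, compared with untreated plants. Treatment consisted of an aqueous spray of WP or EC formulations, with 0.2% wetting agent, onto one-leaf-stage weeds raised from seed in sandy loam.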

[13] = test system: Alopecurus myosuroides; test: Post-emergence herbicidal effect; format: in vivo; conditions: 320 g/ha, assessed visually after about 3 weeks vs untreated controls
Method in brief: as §2

[14] = test system: Veronica persica; test: Post-emergence herbicidal effect; format: in vivo; conditions: assessed visually after about 3 weeks vs untreated controls
Method in brief: as §2

[15] = test system: Lolium multiflorum; test: Post-emergence herbicidal effect; format: in vivo; conditions: assessed visually after about 3 weeks vs untreated controls
Method in brief: as §2

[16] = test system: Stellaria media; test: Post-emergence herbicidal effect; format: in vivo; conditions: assessed visually after about 3 weeks vs untreated controls
Method in brief: as §2

[17] = test system: Viola tricolor; test: Post-emergence herbicidal effect; format: in vivo; conditions: assessed visually after about 3 weeks vs untreated controls
Method in brief: as §2

[18] = test system: Ipomoea purpurea; test: Post-emergence herbicidal effect; format: in vivo; conditions: assessed visually after about 3 weeks vs untreated controls
Method in brief: as §2

[19] = test system: Amaranthus retroflexus; test: Post-emergence herbicidal effect; format: in vivo; conditions: assessed visually after about 3 weeks vs untreated controls
Method in brief: as §2

[20] = test system: Echinochloa crus-galli; test: Post-emergence herbicidal effect; format: in vivo; conditions: assessed visually after about 3 weeks vs untreated controls
Method in brief: as §2

[21] = test system: Setaria viridis; test: Post-emergence herbicidal effect; format: in vivo; conditions: assessed visually after about 3 weeks vs untreated controls
Method in brief: as §2

[22] = test system: Abutilon theophrasti; test: Post-emergence herbicidal effect; format: in vivo; conditions: assessed visually after about 3 weeks vs untreated controls
Method in brief: as §2

[23] = test system: Avena fatua; test: Post-emergence herbicidal effect; format: in vivo; conditions: 320 g/ha, assessed visually after about 3 weeks vs untreated controls
Method in brief: as §2

[24] = test system: Polygonum convolvulus; test: Post-emergence herbicidal effect; format: in vivo; conditions: assessed visually after about 3 weeks vs untreated controls
Method in brief: as §2

[25] = test system: Ipomoea purpurea; test: Pre-emergence herbicidal effect; format: in vivo; conditions: scored visually after 3 weeks
Method in brief: as §1

[26] = test system: Avena fatua; test: Pre-emergence herbicidal effect; format: in vivo; conditions: scored visually after 3 weeks
Method in brief: as §1

[27] = test system: Cyperus esculentus; test: Pre-emergence herbicidal effect; format: in vivo; conditions: scored visually after 3 weeks
Method in brief: as §1

[28] = test system: Lolium multiflorum; test: Pre-emergence herbicidal effect; format: in vivo; conditions: Dosage 320 g/ha, scored visually after 3 weeks
Method in brief: as §1

SMILES | MATIN pre-emergence efficacy (herbicidal activity) ([1]; Dosage 80 g/ha) | MATIN pre-emergence efficacy (herbicidal activity) ([1]; Dosage 320 g/ha) | ALOMY pre-emergence efficacy (herbicidal activity) ([2]; Dosage 320 g/ha) | VIOTR pre-emergence efficacy (herbicidal activity) ([5]; Dosage 80 g/ha) | VIOTR pre-emergence efficacy (herbicidal activity) ([5]; Dosage 320 g/ha) | AMARE pre-emergence efficacy (herbicidal activity) ([6]; Dosage 80 g/ha) | AMARE pre-emergence efficacy (herbicidal activity) ([6]; Dosage 320 g/ha) | ECHCG pre-emergence efficacy (herbicidal activity) ([7]; Dosage 80 g/ha) | ECHCG pre-emergence efficacy (herbicidal activity) ([7]; Dosage 320 g/ha) | SETVI pre-emergence efficacy (herbicidal activity) ([8]; Dosage 80 g/ha) | SETVI pre-emergence efficacy (herbicidal activity) ([8]; Dosage 320 g/ha) | ABUTH pre-emergence efficacy (herbicidal activity) ([9]; Dosage 320 g/ha) | POLCO pre-emergence efficacy (herbicidal activity) ([10]; Dosage 320 g/ha) | post-emergence efficacy MATIN ([12]; 320 g/ha) | post-emergence efficacy STEME ([16]; 320 g/ha) | post-emergence efficacy VIOTR ([17]; 320 g/ha) | post-emergence efficacy PHBPU ([18]; 320 g/ha) | post-emergence efficacy AMARE ([19]; 320 g/ha) | post-emergence efficacy SETVI ([21]; 320 g/ha) | post-emergence efficacy ABUTH ([22]; 320 g/ha) | further results
Cc1cc2c(s1)CC(C)C2Nc1ncc(S(C)(=O)=O)c(N)n1 (racemic) [compound 17] | 100% | 100% | 100% | 100% | 100% | 100% | 100% | 100% | 100% | 60% | 100% | 100% | 100% | 80% | 100% | 90% | 0% | 100% | 100% | 100% | VERPE pre-emergence efficacy (herbicidal activity) ([3]; Dosage 80 g/ha): 100%; VERPE pre-emergence efficacy (herbicidal activity) ([3]; Dosage 320 g/ha): 100%; STEME pre-emergence efficacy (herbicidal activity) ([4]; Dosage 80 g/ha): 100%; STEME pre-emergence efficacy (herbicidal activity) ([4]; Dosage 320 g/ha): 100%; ABUTH pre-emergence efficacy (herbicidal activity) ([9]; Dosage 80 g/ha): 80%; logP (HCOOH) [11]: oily; logP (HCOOH): 2.11; 1H NMR (CDCl3, 400 MHZ, δ in ppm): 1.30 (d, 3H, 3H of; post-emergence efficacy ALOMY [13]: 90%; post-emergence efficacy VERPE ([14]; 320 g/ha): 100%; post-emergence efficacy LOLMU ([15]; 80 g/ha): 90%; post-emergence efficacy LOLMU ([15]; 320 g/ha): 100%; post-emergence efficacy ECHCG ([20]; 80 g/ha): 80%; post-emergence efficacy ECHCG ([20]; 320 g/ha): 100%; post-emergence efficacy AVEFA [23]: 100%; post-emergence efficacy POLCO ([24]; 80 g/ha): 80%; post-emergence efficacy POLCO ([24]; 320 g/ha): 80%
Cc1cc2c(s1)CCCC2Nc1nc(N)c(Br)c(C(F)F)n1 (racemic) [compound 284] | 100% | 100% | 80% | 100% | 100% | 100% | 100% | 80% | 100% | 100% | 100% | 80% | 100% | 80% | 100% | 90% | 100% | 80% | 100% | 90% | ALOMY pre-emergence efficacy (herbicidal activity) ([2]; Dosage 80 g/ha): 70%; PHBPU pre-emergence efficacy (herbicidal activity) ([25]; Dosage 80 g/ha): 50%; PHBPU pre-emergence efficacy (herbicidal activity) ([25]; Dosage 320 g/ha): 50%; ABUTH pre-emergence efficacy (herbicidal activity) ([9]; Dosage 80 g/ha): 20%; AVEFA pre-emergence efficacy (herbicidal activity) ([26]; Dosage 80 g/ha): 50%; AVEFA pre-emergence efficacy (herbicidal activity) ([26]; Dosage 320 g/ha): 70%; POLCO pre-emergence efficacy (herbicidal activity) ([10]; Dosage 80 g/ha): 90%; CYPES pre-emergence efficacy (herbicidal activity) ([27]; Dosage 80 g/ha): 90%; CYPES pre-emergence efficacy (herbicidal activity) ([27]; Dosage 320 g/ha): 100%; post-emergence efficacy ALOMY [13]: 100%; post-emergence efficacy STEME ([16]; 80 g/ha): 100%; post-emergence efficacy VIOTR ([17]; 80 g/ha): 60%; post-emergence efficacy PHBPU ([18]; 80 g/ha): 90%; post-emergence efficacy AMARE ([19]; 80 g/ha): 80%; post-emergence efficacy ECHCG ([20]; 320 g/ha): 80%; post-emergence efficacy SETVI ([21]; 80 g/ha): 90%; post-emergence efficacy ABUTH ([22]; 80 g/ha): 90%; post-emergence efficacy POLCO ([24]; 320 g/ha): 100%
CS(=O)(=O)c1cnc(N[C@@H]2CCCc3sccc32)nc1N [compound 24] | 100% | 100% | 100% | 100% | 100% | 100% | 100% | 100% | 100% | 90% | 100% | 100% | 100% | 100% | 100% | 100% | 100% | 90% | 80% | 100% | VERPE pre-emergence efficacy (herbicidal activity) ([3]; Dosage 80 g/ha): 100%; VERPE pre-emergence efficacy (herbicidal activity) ([3]; Dosage 320 g/ha): 100%; LOLMU pre-emergence efficacy (herbicidal activity) [28]: 100%; STEME pre-emergence efficacy (herbicidal activity) ([4]; Dosage 80 g/ha): 100%; STEME pre-emergence efficacy (herbicidal activity) ([4]; Dosage 320 g/ha): 100%; PHBPU pre-emergence efficacy (herbicidal activity) ([25]; Dosage 320 g/ha): 100%; AVEFA pre-emergence efficacy (herbicidal activity) ([26]; Dosage 320 g/ha): 90%; POLCO pre-emergence efficacy (herbicidal activity) ([10]; Dosage 80 g/ha): 100%; CYPES pre-emergence efficacy (herbicidal activity) ([27]; Dosage 320 g/ha): 60%; logP (HCOOH) [11]: solid; logP (HCOOH): 1.82; 1H NMR (CDCl3, 400 MHZ, δ in ppm): 1.85 (m, 3H, 3H; post-emergence efficacy MATIN ([12]; 80 g/ha): 80%; post-emergence efficacy VERPE ([14]; 80 g/ha): 90%; post-emergence efficacy VERPE ([14]; 320 g/ha): 100%; post-emergence efficacy STEME ([16]; 80 g/ha): 80%; post-emergence efficacy VIOTR ([17]; 80 g/ha): 90%; post-emergence efficacy PHBPU ([18]; 80 g/ha): 80%; post-emergence efficacy AMARE ([19]; 80 g/ha): 90%; post-emergence efficacy ABUTH ([22]; 80 g/ha): 100%; post-emergence efficacy POLCO ([24]; 320 g/ha): 80%
